Patent US10808007B2, “Desacetoxytubulysin H and analogs thereof” (WILLIAM MARSH RICE UNIVERSITY, priority 2015, dated 2020)
Where two headings read alike, the source gives them in different places.

Tests used:
Type in all cases: cell-based
CNS cancer cell lines = assay: NCI-60 cytotoxicity, CNS cancer; details: Homo sapiens; NCI-60, selected value
Method: (§1) A number of the synthesized compounds (i.e. Tb1-Tb23) were evaluated for their activity against a variety of cancer cell lines, namely the NCI-60 human cancer cell line panel representing leukemia, melanoma, lung, colon, brain, ovary, breast, prostate and kidney types of cancer through the In Vitro Cell Line Screening Project (IVCLSP) of the National Cancer Institute (NCI), and a summary of the results is shown in Table 1. […] As there was interest in the activity in certain other cell lines, these and the remaining compounds (Tb1-Tb41, PTb-D42 and PTb-D43) were subjected to further testing against MES SA (uterine sarcoma cells), MES SA DX (multidrug resistant uterine sarcoma cells), and HEK 293T (human embryonic kidney cells). […] Tubulysins are known to be substrates for Pgp pumps (Xiangming, et al., 2013; Kaur, et al., 2006; Szakacs, et al., 2006) as supported by the observed low activities of all tubulysins tested except Tb28, Tb32 and Tb33.

[1] = tested on: non-small cell lung cancer cell lines; assay: NCI-60 cytotoxicity, non-small cell lung cancer; details: Homo sapiens; NCI-60, selected value
Method: as §1

breast cancer cell lines = assay: NCI-60 cytotoxicity, breast cancer; details: Homo sapiens; NCI-60, selected value
Method: as §1

[2] = tested on: MES SA (uterine sarcoma cells); assay: Cytotoxic assay (CellTiter-Glo, 72 h), MES SA; details: Homo sapiens, MES-SA, read-out: IC50 MES SA
[3] = tested on: prostate cancer cell lines; assay: NCI-60 cytotoxicity, prostate cancer; details: Homo sapiens; NCI-60, selected value
Method: as §1

renal cancer cell lines = assay: NCI-60 cytotoxicity, renal cancer; details: Homo sapiens; NCI-60, selected value
Method: as §1

melanoma cell lines = assay: NCI-60 cytotoxicity, melanoma; details: Homo sapiens; NCI-60, selected value
Method: as §1

[4] = tested on: ovarian cancer cell lines; assay: NCI-60 cytotoxicity, ovarian cancer; details: Homo sapiens; NCI-60, selected value
Method: as §1

[5] = tested on: MES SA DX (multidrug resistant uterine sarcoma cells); assay: Cytotoxic assay (CellTiter-Glo, 72 h), MES SA DX; details: Homo sapiens
[6] = tested on: leukemia cancer cell lines; assay: NCI-60 cytotoxicity, leukemia; details: Homo sapiens; NCI-60, selected value
Method: as §1

[7] = tested on: HEK 293T (human embryonic kidney cells); assay: Cytotoxic assay (CellTiter-Glo, 72 h), HEK 293T; details: Homo sapiens, HEK-293T, read-out: IC50 HEK 293T
colon cancer cell lines = assay: NCI-60 cytotoxicity, colon cancer; details: Homo sapiens; NCI-60, selected value
Method: as §1

CC[C@H](C)[C@H](NC(=O)Nc1ccccc1)C(=O)N(C)[C@H](C[C@@H](OC(C)=O)c1nc(C(=O)N[C@@H](Cc2ccccc2)C[C@H](C)C(=O)OC)cs1)C(C)C [Tb5, (2S,4R)-Methyl 4-(2-((1R,3R)-1-acetoxy-3-((2S,3S)—N,3-dimethyl-2-(3-phenylureido)pentanamido)-4-methylpentyl)thiazole-4-carboxamido)-2-methyl-5-phenylpentanoate]
GI50 (CNS cancer cell lines): > 1000 nM
GI50 [1]: > 1000 nM
GI50 (breast cancer cell lines): 514 nM
IC50 ([2]; 72 h): > 50 nM
GI50 [3]: > 1000 nM
GI50 (renal cancer cell lines): > 1000 nM
GI50 (melanoma cell lines): 416 nM
GI50 [4]: > 1000 nM
IC50 [5]: > 50 nM
GI50 [6]: > 1000 nM
IC50 ([7]; 72 h): > 50 nM
GI50 (colon cancer cell lines): > 1000 nM

CC[C@@H](C)[C@H](NC(=O)CN(C)C)C(=O)N(C)[C@H](C[C@@H](OC(C)=O)c1nc(C(=O)NC23CC(C(=O)OC)(C2)C3)cs1)C(C)C [Tb16]
GI50 (CNS cancer cell lines): 127 nM
GI50 [1]: 85 nM
GI50 (breast cancer cell lines): 123 nM
IC50 ([2]; 72 h): > 50 nM
GI50 [3]: 303 nM
GI50 (renal cancer cell lines): 186 nM
GI50 (melanoma cell lines): 46.1 nM
GI50 [4]: 99.1 nM
IC50 [5]: > 50 nM
GI50 [6]: 15.1 nM
IC50 ([7]; 72 h): > 50 nM
GI50 (colon cancer cell lines): 98.1 nM

CC[C@H](C)[C@H](NC(=O)[C@H]1CCCCN1C)C(=O)N(C)[C@H](C[C@@H](OC(C)=O)c1cccc(C(=O)N[C@@H](Cc2ccccc2)C[C@H](C)C(=O)OC)n1)C(C)C [Tb38, Methyl (2S,4R)-4-(6-((1R,3R)-1-acetoxy-3-((2S,3S)—N,3-dimethyl-2-((R)-1-methylpiperidine-2-carboxamido)pentanamido)-4-methylpentyl)picolinamido)-2-methyl-5-phenylpentanoate]
IC50 ([2]; 72 h): 0.357 nM
IC50 [2]: 0.357 nM
IC50 [5]: < 500 nM
IC50 ([7]; 72 h): 0.574 nM
IC50 [7]: 0.574 nM

COC(=O)[C@@H](C)C[C@H](Cc1ccccc1)NC(=O)c1csc([C@@H](C[C@H](C(C)C)N(C)C(=O)[C@@H](NC(=O)[C@H]2CCCCN2C)C2CCCCC2)OC(C)=O)n1 [Tb33, (2S,4R)-Methyl 4-(2-((1R,3R)-1-acetoxy-3-((S)-2-cyclohexyl-N-methyl-2-((R)-1-methylpiperidine-2-carboxamido)acetamido)-4-methylpentyl)thiazole-4-carboxamido)-2-methyl-5-phenylpentanoate]
IC50 ([2]; 72 h): 0.066 nM
IC50 [2]: 0.066 nM
IC50 [5]: 101 nM
IC50 ([7]; 72 h): 0.048 nM
IC50 [7]: 0.048 nM

COC(=O)[C@@H](C)C[C@H](Cc1ccccc1)NC(=O)c1csc([C@@H](C[C@H](C(C)C)N(C)C(=O)[C@@H](NC(=O)[C@H]2CCCN2C)C2CC2)OC(C)=O)n1 [Tb26, (2S,4R)-Methyl 4-(2-((1R,3R)-1-acetoxy-3-((S)-2-cyclopropyl-N-methyl-2-((R)-1-methylpyrrolidine-2-carboxamido)acetamido)-4-methylpentyl)thiazole-4-carboxamido)-2methyl-5-phenylpentanoate]
IC50 ([2]; 72 h): 0.2 nM
IC50 [2]: 0.2 nM
IC50 [5]: > 100 nM
IC50 ([7]; 72 h): 0.12 nM
IC50 [7]: 0.12 nM

COC(=O)[C@@H](C)C[C@H](Cc1ccccc1)NC(=O)c1csc([C@@H](C[C@H](C(C)C)N(C)C(=O)C2(NC(=O)[C@H]3CCCCN3C)CC2)OC(C)=O)n1 [Tb27, (2S,4R)-Methyl 4-(2-((1R,3R)-1-acetoxy-4-methyl-3-(N-methyl-1-((R)-1-methylpiperidine-2-carboxamido)cyclopropanecarboxamido)pentyl)thiazole-4-carboxamido)-2-methyl-5-phenylpentanoate]
IC50 ([2]; 72 h): 2.46 nM
IC50 [5]: > 100 nM
IC50 ([7]; 72 h): 1.96 nM

CC[C@H](C)[C@H](NC(=O)[C@H]1CCCCN1C)C(=O)N(C)[C@H](CCc1nc(C(=O)N[C@@H](Cc2ccccc2)C[C@H](C)C(=O)OC)cs1)C(C)C [PTb-D42, Methyl(2S,4R)-4-(2-((R)-3-((2S,3S)—N,3-dimethyl-2-((R)-1-methylpiperidine-2-carboxamido)pentanamido)-4-methylpentyl)thiazole-4-carboxamido)-2-methyl-5-phenylpentanoate]
IC50 ([2]; 72 h): > 1000 nM
IC50 [5]: > 1000 nM
IC50 ([7]; 72 h): > 1000 nM

CC[C@H](C)[C@H](NC(=O)c1cnccn1)C(=O)N(C)[C@H](C[C@@H](OC(C)=O)c1nc(C(=O)N[C@@H](Cc2ccccc2)C[C@H](C)C(=O)OC)cs1)C(C)C [Tb35, (2S,4R)-methyl 4-(2-((1R,3R)-1-acetoxy-3-((2S,3S)—N,3-dimethyl-2-(pyrazine-2-carboxamido)pentanamido)-4-methylpentyl)thiazole-4-carboxamido)-2-methyl-5-phenylpentanoate]
IC50 ([2]; 72 h): > 1000 nM
IC50 [5]: > 1000 nM
IC50 ([7]; 72 h): > 500 nM

COC(=O)[C@@H](C)C[C@H](Cc1ccccc1)NC(=O)c1csc([C@@H](C[C@H](C(C)C)N(C)C(=O)[C@@H](NC(=O)[C@H]2CCCCN2C)c2ccc(F)cc2)OC(C)=O)n1 [Tb29, (2S,4R)-Methyl 4-(2-((1R,3R)-1-acetoxy-3-((S)-2-(4-fluorophenyl)-N-methyl-2-((R)-1-methylpiperidine-2-carboxamido)acetamido)-4-methylpentyl)thiazole-4-carboxamido)-2-methyl-5-phenylpentan oate]
IC50 ([2]; 72 h): 2.61 nM
IC50 [5]: 500 nM
IC50 ([7]; 72 h): 2.24 nM

CC[C@H](C)[C@H](NC(=O)[C@H]1CCCCN1C)C(=O)N(C)[C@H](CCc1nc(C(=O)N[C@@H](Cc2ccccc2)C[C@H](C)C(=O)O)cs1)C(C)C [PTb-D43, pretubulysin D, reference compound]
IC50 ([2]; 72 h): 409 nM
IC50 [5]: > 1000 nM
IC50 ([7]; 72 h): 109 nM

CC[C@H](C)[C@H](NC(=O)[C@H]1CCCCN1C)C(=O)N(C)[C@H](C[C@@H](OC(C)=O)c1cccc(C(=O)N[C@@H](Cc2ccccc2)C[C@H](C)C(=O)O)n1)C(C)C [Tb39, (2S,4R)-4-(6-((1R,3R)-1-acetoxy-3-((2S,3S)—N,3-dimethyl-2-((R)-1-methylpiperidine-2 carboxamido)pentanamido)-4-methylpentyl)picolinamido)-2-methyl-5-phenylpentanoic Acid]
IC50 ([2]; 72 h): 0.891 nM
IC50 [2]: 0.891 nM
IC50 [5]: < 500 nM
IC50 ([7]; 72 h): 0.194 nM
IC50 [7]: 0.194 nM

COC(=O)[C@@H](C)C[C@H](Cc1ccccc1)NC(=O)c1csc([C@@H](C[C@H](C(C)C)N(C)C(=O)C2(NC(=O)[C@H]3CCCCN3C)CCC2)OC(C)=O)n1 [Tb28, (2S,4R)-Methyl 4-(2-((1R,3R)-1-acetoxy-4-methyl-3-(N-methyl-1-((R)-1-methylpiperidine-2-carboxamido)cyclobutanecarboxamido)pentyl)thiazole-4-carboxamido)-2-methyl-5-phenylpentanoate]
IC50 ([2]; 72 h): 1.13 nM
IC50 [5]: 81.7 nM
IC50 ([7]; 72 h): 0.69 nM

COC(=O)[C@H](Cc1ccccc1)NC(=O)c1csc([C@@H](C[C@H](C(C)C)N(C)C(=O)[C@@H](NC(=O)[C@H]2CCCCN2C)C2CC2)OC(C)=O)n1 [Tb24, Methyl(2-((1R,3R)-1-acetoxy-3-((S)-2-cyclopropyl-N-methyl-2-((R)-1-methylpiperidine-2-carboxam-ido)acetamido)-4-methylpentyl)thiazole-4-carbonyl)-L-phenylalaninate]
IC50 ([2]; 72 h): 13.1 nM
IC50 [5]: > 100 nM
IC50 ([7]; 72 h): 9.69 nM

CC(=O)O[C@H](C[C@H](C(C)C)N(C)C(=O)[C@@H](NC(=O)[C@H]1CCCCN1C)C1CC1)c1nc(C(=O)N[C@@H](Cc2ccccc2)C[C@H](C)C(=O)O)cs1 [Tb30, (2S,4R)-4-(2-((1R,3R)-1-Acetoxy-3-((S)-2-cyclopropyl-N-methyl-2-((R)-1-methylpiperidine-2-carboxamido)acetamido)-4-methylpentyl)thiazole-4-carboxamido)-2-methyl-5-phenylpentanoic Acid]
IC50 ([2]; 72 h): 4.09 nM
IC50 [5]: > 100 nM
IC50 ([7]; 72 h): 0.35 nM

COC(=O)[C@@H](C)C[C@H](Cc1cn(C)c2ccccc12)NC(=O)c1csc([C@@H](C[C@H](C(C)C)N(C)C(=O)[C@@H](NC(=O)[C@H]2CCCCN2C)C(C)C)OC(C)=O)n1 [Tb41, Methyl(2S,4R)-4-(2-((1R,3R)-1-acetoxy-3-((S)—N,3-dimethyl-2-((R)-1-methylpiperidine-2-carboxamido)butanamido)-4-methylpentyl)thiazole-4-carboxamido)-2-methyl-5-(1-methyl-1H-indol-3-yl)pen-tanoate]
IC50 ([2]; 72 h): > 1000 nM
IC50 [5]: > 1000 nM
IC50 ([7]; 72 h): 21.1 nM
